Source: US20200268831A1, “METHODS FOR ENHANCING IMMUNOTHERAPY IN THE TREATMENT OF CANCER” (The Texas A&M University System, priority 2017, published 2020)

Columns and labels:
MHCII in B cells = assay: competitive displacement of peptides in the peptide binding groove of MHCII in B cells; format: cell-based; conditions: preliminary studies
Procedure: To confirm the expression of MHCII staining with fluorochrome-conjugated anti-MHCII antibodies, followed by flow cytometric analysis may be performed. The cells are stained for a panel of cell surface molecules, including CD19, CD80 (B7.1), CD86 (B7.2), CD74, MHCII associated invariant peptide (CLIP), and the family of immune check points, including PD1, B7-H2, and B7-H4. As a starting concentration, the cultured cells are treated with a competitive antagonist peptide (CAP) at a concentration of 5 μg/ml, as established from preliminary studies as the optimum concentration for competitive displacement of peptides in the peptide binding groove of MHCII in B cells. […] To characterize these parameters, including levels of MHCII and other cell surface characteristics, the cells are treated with the competitive antagonist peptide at the previously determined optimum concentration, presumably 5 μg/ml, followed by treatment with anti-MHCII antibody as a surrogate for TCR engagement. Susceptibility to MHCII-mediated cell death is assessed by treating the cells with peptide, followed by treatment with anti-MHCII antibody for periods ranging between 3 and 24 hours to determine the optimum kinetics for inducing cell death. […] The capability of CAP peptide treatment to promote MHCII-mediated cell death may be assessed.

[1] = test system: MHC class II expressing B cells; assay: MHCII-mediated cell death of CpG-activated cells after peptide and anti-MHCII antibody; format: cell-based, C57/B6 mice; conditions: CpG activated cells treated with peptide followed by antibodies to MHCII; FIG. 3A
Procedure: In a first experiment, animals were injected with complete Freunds adjuvant (CFA) that contains mycobacterial DNA (a well-established TLR activator), or with CFA followed by the competitive antagonist peptide (CLIP inhibitor, SEQ ID NO. 2). Spleens were harvested, stained with CD19 for the detection of B cells, versus CLIP as an indicator of CD19+ cells expressing CLIP. The effect of CLIP inhibitors delivered in vivo on B cells (1A) versus CLIP+B cells (1B) is presented in the bar graphs.
To test the hypothesis that CLIP in the groove prevents MHCII-mediated cell death, we utilized animals that are deficient in CD74 expression (Ii Def mice), thus lacking both the precursor CD74 molecule as well as its proteolytic product, CLIP. […] any increase in cell death following CpG treatment, FIGS. 3A and 3B. […] The absence of CLIP (CLIP knock outs) leaves the cells susceptible to MHC Class II-mediated cell death (3B).

For FRIMAVLAS [TPP], the “optimum concentration for competitive displacement of peptides in the peptide binding groove of MHCII” value (MHCII in B cells) was 5 µg/mL and the “MHC Class-II-mediated cell death” value [1] was “MHC Class-II-mediated cell death can be restored”.
